Drawing on US10738062B2, “Chromane-substituted tetracyclic compounds and uses thereof for the treatment of viral diseases” (Merck Sharp & Dohme Corp., priority 2016, dated 2020), this text covers EC50 for 19 compounds.

Where two headings read alike, the source gives them in different places.

Common to all, as to design: species or system Hepatitis C virus
One experiment deals with HCV replicon 2B. Briefly: Cell-based HCV replicon assay (Replicon Assay A), replicon 2B. As to conditions: replicon RNA by real time PCR, day 3. As to the method:
(§1) To measure cell-based anti-HCV activity of compounds of the present invention, two complimentary assays were employed using various replicons. In the first assay (“Replicon Assay A”), replicon cells were seeded at 2000 cells/well in 384-well 384-well flat bottom tissue culture treated clear bottom plate (Corning 3707) in the presence of the test compound. Various concentrations of test compound, typically in 10 serial dilutions, were added to the assay mixture, with the starting concentration ranging from 333.3 nM to 1.667 nM. The final concentration of DMSO was 0.5%. Fetal bovine serum was 5%, in the assay media. Cells were harvested on day 3 by removing media and washing the cells with a suitable wash buffer. The cells were lysed with the addition of 1× Qiagen lysis buffer (Cat #1062731). The replicon RNA level was measured using real time PCR (TaqMan® EZ RT-PCR, Applied Biosystems 403028) with the following primers and probes: […]
(§2) Cyclophilin RNA was used as endogenous control and was amplified in the same reaction as NS5B (multiplex PCR). The real-time RT-PCR reactions were run on ABI PRISM 7900HT Sequence Detection System using the following program: 50° C. for 2 minutes, 60° C. for 30 minutes, 95° C. for 5 minutes, 40 cycles of 94° C. for 20 sec, 55° C. for 1 minutes.
(§3) The amount of HCV replicon RNA per cell was quantified using a linear regression curve for a known nanogram (ng) amount of HCV replicon total RNA. This was established by plotting the Cycle Threshold values (Ct) from the Neo probe and primer set versus the log (ng) for each HCV replicon total RNA standard. The amount of HCV RNA for each replicon sample was calculated by taking the sample's Ct value, minus the line intercept, divided by the slope of the line. Similarly, the amount of Cyclophilin mRNA per cell was also quantified using a linear regression curve for a known nanogram (ng) amount of HCV replicon total RNA. Again, this was established by plotting the Cycle Threshold values (Ct) from the Cyclophilin probe and primer set versus the log (ng) for each HCV replicon total RNA standard.
(§4) The real-time RT-PCR reactions were run on ABI PRISM 7900HT or Viia7 Sequence Detection System using the following program: 48° C. for 30 minutes, 95° C. for 10 minutes, 40 cycles of 95° C. for 15 sec, 60° C. for 1 minutes. The 50% effective concentration (EC50) was the drug concentration necessary to achieve an increase in the cycle threshold (CT) of 1 over the projected baseline CT.
(§5) Data was obtained for various compounds of the present invention using the methods described in the Example above, and is presented in the table immediately below. EC50 data for replicons 1A, 1AY93H and 2B were obtained using Replicon Assay A and EC50 data for replicon 1B was obtained using Replicon Assay B.

The subject of another experiment is HCV replicon 1A. Put plainly: Cell-based HCV replicon assay (Replicon Assay A), replicon 1A. The following applies: replicon RNA by real time PCR, day 3. As to the method: as §1, §2, §3, §4, §5
In the next experiment the test system is HCV replicon 1A Y93H. Briefly: Cell-based HCV replicon assay (Replicon Assay A), replicon 1AY93H. As to conditions: read-out: EC50 replicon 1A Y93H; Replicon Assay A; replicon RNA by real time PCR, day 3. The protocol:
as §1, §2, §3, §4, §5

The mark [1] stands for this setting: read-out: EC50 replicon 2B, Replicon Assay A.

For `COC(=O)NC(C(=O)N1CCC[C@H]1c1ncc(-c2ccc3c(c2)cc2n3C(c3ccc4c(c3)OC(C)CC4)Oc3cc(-c4cnc([C@@H]5CCCN5C(=O)[C@@H](NC(=O)OC)C(C)C)[nH]4)cc(F)c3-2)[nH]1)C1C[C@@H](C)O[C@@H](C)C1` (single isomer, unassigned) [Compound 58], the EC50 turned out to be 0.403 nM in the experiment on HCV replicon 2B (setting [1]), 0.0022 nM with HCV replicon 1A and 1.09 nM in the experiment on HCV replicon 1A Y93H.

As for `COC(=O)N[C@H](C(=O)N1CCC[C@H]1c1ncc(-c2cc(F)c3c(c2)OC(c2ccc4c(c2)OCCC4C)n2c-3cc3cc(-c4cnc([C@@H]5CCCN5C(=O)[C@@H](NC(=O)OC)C(C)C)[nH]4)ccc32)[nH]1)C(C)C` (single isomer, unassigned) [Compound 7], the EC50 in the experiment on HCV replicon 2B (setting [1]) is 1.59 nM; with HCV replicon 1A (Hepatitis C virus, 72 h), 0.0017 nM; in the experiment on HCV replicon 1A Y93H, 2.18 nM.

In the case of `COC(=O)N[C@H](C(=O)N1CCC[C@H]1c1ncc(-c2cc(F)c3c(c2)OC(c2ccc4c(c2)OCC4)n2c-3cc3cc(-c4cnc([C@@H]5C[C@H]6C[C@H]6N5C(=O)[C@@H](NC(=O)OC)C(C)C)[nH]4)ccc32)[nH]1)C(C)C` (single isomer, unassigned) [Compound 47], the results for the EC50 in the experiment with HCV replicon 2B (setting [1]) and with HCV replicon 1A Y93H were 4.32 nM and 4.52 nM, respectively.

For `COC(=O)N[C@H](C(=O)N1CCC[C@H]1c1ncc(-c2ccc3c(c2)OC(c2ccc4c(c2)OCCC4)n2c-3cc3cc(-c4cnc([C@@H]5C[C@H]6C[C@H]6N5C(=O)[C@@H](NC(=O)OC)C(C)C)[nH]4)ccc32)[nH]1)C(C)C` (single isomer, unassigned) [Compound 49], the EC50 in the experiment with HCV replicon 2B (setting [1]) was 0.817 nM; in the experiment on HCV replicon 1A (Hepatitis C virus, 72 h) it was 0.0016 nM; with HCV replicon 1A Y93H, 2.44 nM.

Consider `COC(=O)N[C@H](C(=O)N1CCC[C@H]1c1ncc(-c2cc(F)c3c(c2)OC(c2ccc4c(c2)OCCC4)n2c-3cc3cc(-c4cnc([C@@H]5C[C@@H](F)CN5C(=O)[C@@H](c5ccccc5)N5CCC5)[nH]4)ccc32)[nH]1)C(C)C` (single isomer, unassigned) [Compound 37], for which the EC50 in the experiment with HCV replicon 1A stood at 0.187 nM; in the experiment with HCV replicon 1A Y93H, 15.2 nM.

As to `COC(=O)N[C@H](C(=O)N1CCC[C@H]1c1ncc(-c2cc(F)c3c(c2)OC(c2ccc4c(c2)OCCC4)n2c-3cc3cc(-c4cnc([C@@H]5C[C@H]6C[C@H]6N5C(=O)[C@@H](c5ccccc5)N5CCC5)[nH]4)ccc32)[nH]1)C1CCOCC1` (single isomer, unassigned) [Compound 71], the 50% effective concentration (EC50) in the experiment on HCV replicon 2B (Hepatitis C virus, 72 h, read-out: EC50 replicon 2B, Replicon Assay A) turned out to be 5.13 nM.

For `COC(=O)N[C@H](C(=O)N1CCC[C@H]1c1ncc(-c2cc(F)c3c(c2)OC(c2ccc4c(c2)OC(C)CC4)n2c-3cc3cc(-c4cnc([C@@H]5CCCN5C(=O)[C@@H](NC(=O)OC)C(C)C)[nH]4)ccc32)[nH]1)C(C)C` (single isomer, unassigned) [Compound 11], the EC50 with HCV replicon 2B (setting [1]) turned out to be 1.39 nM; in the experiment with HCV replicon 1A (Hepatitis C virus, 72 h), 0.0025 nM; with HCV replicon 1A Y93H, 5.7 nM.

In the case of `COC(=O)NC(C(=O)N1CCC[C@H]1c1ncc(-c2ccc3c(c2)cc2n3C(c3ccc4c(c3)OC(C)CC4)Oc3cc(-c4cnc([C@@H]5CCCN5C(=O)[C@@H](NC(=O)OC)C(C)C)[nH]4)cc(F)c3-2)[nH]1)C1CCOC(C)(C)C1` (single isomer, unassigned) [Compound 61], the 50% effective concentration (EC50) in the experiment with HCV replicon 2B (setting [1]) was determined as 0.215 nM; in the experiment with HCV replicon 1A (Hepatitis C virus, 72 h) it was 0.0023 nM; in the experiment with HCV replicon 1A Y93H, 1.49 nM.

`COC(=O)NC(C(=O)N1CCC[C@H]1c1ncc(-c2ccc3c(c2)cc2n3C(c3ccc4c(c3)CCCO4)Oc3cc(-c4cnc([C@@H]5CCCN5C(=O)[C@@H](NC(=O)OC)C(C)C)[nH]4)cc(C)c3-2)[nH]1)C1C[C@@H](C)O[C@@H](C)C1` (single isomer, unassigned) [Compound 84]: the results for the EC50 with HCV replicon 2B (setting [1]), in the experiment on HCV replicon 1A and in the experiment with HCV replicon 1A Y93H were 0.193 nM, 0.002 nM and 0.674 nM, respectively.

`COC(=O)NC(C(=O)N1CCC[C@H]1c1ncc(-c2ccc3c(c2)cc2n3C(c3ccc4c(c3)CCC(C)O4)Oc3cc(-c4cnc([C@@H]5CCCN5C(=O)[C@@H](NC(=O)OC)C(C)C)[nH]4)cc(F)c3-2)[nH]1)C1C[C@@H](C)O[C@@H](C)C1` (single isomer, unassigned) [Compound 55]: the concentration for a half-maximal effect (EC50) in the experiment with HCV replicon 2B (setting [1]) was determined as 1.26 nM; with HCV replicon 1A (Hepatitis C virus, 72 h), 0.0019 nM; in the experiment with HCV replicon 1A Y93H, 1.86 nM.

Consider `COC(=O)N[C@H](C(=O)N1CCC[C@H]1c1ncc(-c2cc(F)c3c(c2)OC(c2ccc4c(c2)OCCC4)n2c-3cc3cc(-c4cnc([C@@H]5C[C@H]6C[C@H]6N5C(=O)[C@@H](c5ccccc5)N5CCC5)[nH]4)ccc32)[nH]1)C1CCOCC1` (single isomer, unassigned) [Compound 72], for which, in the experiment on HCV replicon 2B (setting [1]), the EC50 is 3.3 nM.

Consider `COC(=O)N[C@H](C(=O)N1CCC[C@H]1c1ncc(-c2cc(F)c3c(c2)OC(c2ccc4c(c2)OC(C)CC4)n2c-3cc3cc(-c4cnc([C@@H]5CCCN5C(=O)[C@@H](NC(=O)OC)C(C)C)[nH]4)ccc32)[nH]1)C(C)C` (single isomer, unassigned) [Compound 12], for which the half-maximal effective concentration (EC50) was found to be 1.9 nM in the experiment on HCV replicon 2B (setting [1]), 0.0016 nM in the experiment with HCV replicon 1A and 6.73 nM with HCV replicon 1A Y93H.

Consider `COC(=O)NC(C(=O)N1[C@@H]2C[C@@H]2C[C@H]1c1ncc(-c2ccc3c(c2)cc2n3C(c3ccc4c(c3)CCCO4)Oc3cc(-c4cnc([C@@H]5CCCN5C(=O)[C@@H](NC(=O)OC)C(C)C)[nH]4)cc(F)c3-2)[nH]1)C1C[C@@H](C)O[C@@H](C)C1` (single isomer, unassigned) [Compound 66], for which the values for the concentration giving a half-maximal response (EC50) in the experiment on HCV replicon 2B (setting [1]), in the experiment with HCV replicon 1A and in the experiment with HCV replicon 1A Y93H were 2.35 nM, 0.0034 nM and 0.172 nM, respectively.

With `COC(=O)N[C@H](C(=O)N1CCC[C@H]1c1ncc(-c2cc(F)c3c(c2)OC(c2ccc4c(c2)OCCC4(F)F)n2c-3cc3cc(-c4cnc([C@@H]5CCCN5C(=O)[C@@H](NC(=O)OC)C(C)C)[nH]4)ccc32)[nH]1)C(C)C` (single isomer, unassigned) [Compound 19], the EC50 is 0.767 nM in the experiment on HCV replicon 2B (setting [1]); 0.0014 nM in the experiment on HCV replicon 1A (Hepatitis C virus, 72 h); 4.2 nM in the experiment on HCV replicon 1A Y93H.

Take `COC(=O)N[C@H](C(=O)N1CCC[C@H]1c1ncc(-c2cc(F)c3c(c2)OC(c2ccc4c(c2)OCCC4)n2c-3cc3cc(-c4cnc([C@@H]5C[C@@H](F)CN5C(=O)[C@@H](c5ccccc5)N5CCC5)[nH]4)ccc32)[nH]1)C(C)C` (single isomer, unassigned) [Compound 38]: the concentration for a half-maximal effect (EC50) in the experiment with HCV replicon 1A was determined as 0.0052 nM; in the experiment with HCV replicon 1A Y93H, 6.65 nM.

`COC(=O)N[C@H](C(=O)N1CCC[C@H]1c1ncc(-c2cc(F)c3c(c2)OC(c2ccc4c(c2)OC(C)(C)CC4)n2c-3cc3cc(-c4cnc([C@@H]5CCCN5C(=O)[C@@H](NC(=O)OC)C(C)C)[nH]4)ccc32)[nH]1)C(C)C` (single isomer, unassigned) [Compound 17]: the 50% effective concentration (EC50) turned out to be 5.21 nM in the experiment on HCV replicon 2B (setting [1]) and 11.8 nM in the experiment on HCV replicon 1A Y93H.

`COC(=O)NC(C(=O)N1CCC[C@H]1c1ncc(-c2ccc3c(c2)cc2n3C(c3ccc4c(c3)OCCC4)Oc3cc(-c4cnc([C@@H]5CCCN5C(=O)[C@@H](NC(=O)OC)C(C)C)[nH]4)cc(F)c3-2)[nH]1)C(C)(C)F` (single isomer, unassigned) [Compound 44]: in the experiment with HCV replicon 2B (setting [1]), the EC50 was 4.91 nM.

With `CCN(CC)[C@@H](C(=O)N1[C@@H]2C[C@@H]2C[C@H]1c1ncc(-c2ccc3c(c2)cc2n3C(c3ccc4c(c3)OCCC4)Oc3cc(-c4cnc([C@@H]5CCCN5C(=O)[C@@H](NC(=O)OC)C5CCOCC5)[nH]4)cc(F)c3-2)[nH]1)c1ccccc1` (single isomer, unassigned) [Compound 53], the half-maximal effective concentration (EC50) in the experiment with HCV replicon 2B (setting [1]) is 0.379 nM.

Take `COC(=O)NC(C(=O)N1CCC[C@H]1c1ncc(-c2ccc3c(c2)cc2n3C(c3ccc4c(c3)OCCC4)Oc3cc(-c4cnc([C@@H]5CCCN5C(=O)[C@@H](NC(=O)OC)C(C)C)[nH]4)cc(F)c3-2)[nH]1)C(C)(C)F` (single isomer, unassigned) [Compound 41]: the EC50 with HCV replicon 2B (setting [1]) came to 4.13 nM.
